According to article PMC8480776, “Selenium Derivatives as Promising Therapy for Chagas Disease: In Vitro and In Vivo Studies” (ACS Infectious Diseases, 2021):
Read-outs that look alike come from different tables or passages of the source.

Assays:
[1] = test system: T. cruzi trypomastigotes, Arequipa strain; experiment: Screening against bloodstream trypomastigotes, Arequipa strain; assay type: cell-based, Trypanosoma cruzi
[2] = test system: epimastigotes of T. cruzi Arequipa strain; experiment: Flow cytometry analysis of nucleic acid levels (acridine orange); assay type: cell-based, Trypanosoma cruzi; conditions: IC25 concentrations, 72 h
[3] = test system: T. cruzi trypomastigotes, Tulahuen strain; experiment: Screening against bloodstream trypomastigotes, Tulahuen strain; assay type: cell-based, Trypanosoma cruzi
[4] = test system: T. cruzi epimastigotes, SN3 strain; experiment: Screening against extracellular epimastigotes, SN3 strain; assay type: cell-based, Trypanosoma cruzi
T. cruzi Arequipa strain = experiment: In vivo trypanocidal activity on BALB/c mice (acute and chronic Chagas disease); parameters: species or system Trypanosoma cruzi
Method: (§1) Female BALB/c mice aged 10–12 weeks and with a size of 20–24 g were divided into five groups (n = 3 per group): 0, negative control group (uninfected and untreated mice); I, positive control group (infected and untreated mice); II, BZN group (infected mice treated with BZN); III, 26 group (infected mice treated with 26); and IV, 28 group (infected mice treated with 28).
Mice were infected by intraperitoneal injection of 5 × 10^5 BTs of T. cruzi Arequipa strain per mouse in 200 μL PBS.[42] Subsequently, the treatment was intraperitoneally administered (∼200 μL) once daily for 5 consecutive days.
(§2) The tested selenocompounds and BZN were prepared at 2 mg·mL^–1 in an aqueous suspension vehicle containing 5% (v/v) DMSO and 0.5% (w/v) hydroxypropyl methylcellulose, as previously reported.[52] Compounds (20 mg·kg^–1 per day) were administered for 5 consecutive days (total dosages of 100 mg·kg^–1), and vehicle only was administered in the negative and positive control groups. Treatments began when the infection was confirmed (9 dpi) for acute-phase-treated mice, and when it was established that the animals moved into the chronic phase (100 dpi, for chronic-phase-treated mice; Scheme 1).
[…]. Parasitemia was expressed as parasites·mL^–1.
Immunosuppression was performed by intraperitoneal injection of three doses of 200 mg·kg^–1 of ISOPAC CP at 3–4 day intervals (Scheme 1), as previously reported.[53] Mice were closely monitored for side effects or for secondary infections due to immunosuppression. Within 7 days after the last CP injection, parasitemia reactivation was determined by counting BTs according the procedure described for parasitemia in the acute phase.[42]
On 145 dpi, the mice were euthanized using CO2, followed by exsanguination via cardiac puncture, and blood was collected. […]. In addition, spleens were weighed to assess splenomegaly.[42]
DNA extraction of the post-mortem organs/tissues was performed using Wizard Genomic DNA Purification Kit,[41] and the extracted DNA was subjected to amplification by PCR based on the spliced leader (SL) intergenic region sequence of T. cruzi (for detailed description, see literature reported previously).[55] Finally, the PCR products were resolved by electrophoresis on a 2% agarose gel (containing GelRed nucleic gel stain) for 90 min at 90 V.
Circulating antibodies in serum against both antigens were quantitatively evaluated in triplicate by the ELISA test in 96-well plates using diluted serum samples (1:80 in PBS), as previously described.[41]

[5] = test system: T. cruzi amastigotes, Tulahuen strain; experiment: Screening against intracellular amastigotes, Tulahuen strain; assay type: cell-based, Trypanosoma cruzi
Trypanosoma cruzi Fe-SOD = experiment: SOD enzymatic inhibition, Fe-SOD; assay type: biochemical
[6] = test system: T. cruzi amastigotes, SN3 strain; experiment: Screening against intracellular amastigotes, SN3 strain; assay type: cell-based, Trypanosoma cruzi
[7] = test system: Vero cells infected with T. cruzi Arequipa strain; experiment: Infection rate in Vero cells (infected cells), Arequipa strain; assay type: cell-based; conditions: Trypanosoma cruzi, 72 h of treatment
[8] = test system: T. cruzi trypomastigotes, SN3 strain; experiment: Screening against bloodstream trypomastigotes, SN3 strain; assay type: cell-based, Trypanosoma cruzi
[9] = test system: T. cruzi epimastigotes, Tulahuen strain; experiment: Screening against extracellular epimastigotes, Tulahuen strain; assay type: cell-based, Trypanosoma cruzi
[10] = assay type: in vivo, BALB/c mice; conditions: variation vs control
Method: as §1, §2
Serum samples obtained from blood in several days post-infection (Scheme 1) were sent to the Biochemical Service (University of Granada) to measure a series of biochemical parameters with the commercial Cromakit using a clinical chemistry analyzer (BS-200, Shenzhen Mindray Biomedical Electronics Co., LTD), as previously described.[41]

Vero cells = experiment: Cytotoxicity test on Vero cells; assay type: cell-based; conditions: Chlorocebus sabaeus, 48 h + 24 h resazurin, read-out: Toxicity IC50 Vero cell
[11] = test system: T. cruzi epimastigotes, Arequipa strain; experiment: Screening against extracellular epimastigotes, Arequipa strain; assay type: cell-based, Trypanosoma cruzi
[12] = test system: T. cruzi amastigotes, Arequipa strain; experiment: Screening against intracellular amastigotes, Arequipa strain; assay type: cell-based, Trypanosoma cruzi
[13] = biological target: T1, human erythrocytes CuZn-SOD (Homo sapiens, UniProt P00441); experiment: SOD enzymatic inhibition, CuZn-SOD; assay type: biochemical
T1 construct: commercial copper/zinc superoxide dismutase (Cu/Zn-SOD) from human erythrocytes (Sigma-Aldrich); purchased Sigma-Aldrich; host or cells: human erythrocytes (natural source)

[14] = IC50 Vero cells/IC50 trypomastigotes
[15] = IC50 Vero cells/IC50 epimastigotes
[16] = 20 mg·kg–1 per day i.p. 5 days from 9 dpi
[17] = 20 mg·kg–1 per day i.p. 5 days from 100 dpi
[18] = IC50 Vero cells/IC50 amastigotes
[19] = treatment in acute phase, 15th dpi (2 days after treatment)
[20] = treatment in acute phase, necropsy day
[21] = treatment in chronic phase, 106th dpi (2 days after treatment)
[22] = treatment in chronic phase, necropsy day

T1 sequence (P00441 whole entry): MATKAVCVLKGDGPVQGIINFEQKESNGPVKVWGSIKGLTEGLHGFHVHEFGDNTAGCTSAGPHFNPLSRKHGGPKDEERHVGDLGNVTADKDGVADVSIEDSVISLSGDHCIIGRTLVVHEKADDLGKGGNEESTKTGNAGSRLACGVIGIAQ

## N#C[Se]c1ccc(NC(=O)c2ccco2)cc1 [Compound 28]
[1]; [14]
  selectivity index (SI), Arequipa strain, trypom. forms: 50
[1]; Trypanosoma cruzi, bloodstream trypomastigotes, 24 h + 4 h resazurin, read-out: activity IC50, Arequipa strain, trypom. forms
  IC50: 1.8 ± 0.1 µM
[2]
  inhibition of nucleic acid levels: 62%
[3]; [14]
  selectivity index (SI), Tulahuen strain, trypom. forms: 50
[3]; Trypanosoma cruzi, TULAHUEN, bloodstream trypomastigotes, 24 h + 4 h resazurin, read-out: activity IC50, Tulahuen strain, trypom. forms
  IC50: 1.8 ± 0.2 µM
[4]; [15]
  Selectivity index (SI), epimastigotes, SN3 strain: 24
[4]; Trypanosoma cruzi, 48 h + 24 h resazurin, read-out: Activity IC50, epimastigote form, SN3 strain
  IC50: 3.8 ± 0.4 µM
T. cruzi Arequipa strain; [16]
  anti-T. cruzi IgG levels (ELISA), acute phase treatment: lower IgG values than the treated with BZN at the beginning of the treatment
  splenomegaly reduction in comparison with untreated mice, acute phase treatment: 37%
T. cruzi Arequipa strain; 20 mg·kg–1 per day i.p. 5 days from 9 dpi, compared to untreated group
  parasitaemia reactivation after immunosuppression, acute phase treatment: approximately 95%
T. cruzi Arequipa strain; [17]
  anti-T. cruzi IgG levels (ELISA), chronic phase treatment: similar
  splenomegaly reduction in comparison with untreated mice, chronic phase treatment: 48%
T. cruzi Arequipa strain; 20 mg·kg–1 per day i.p. 5 days from 100 dpi, compared to untreated group
  parasitaemia reactivation after immunosuppression, chronic phase treatment: ~85%
T. cruzi Arequipa strain; 20 mg·kg–1 per day i.p. 5 days, necropsy 145 dpi
  parasite levels in target organs/tissues by PCR (in words): did not decrease enough parasite levels in the analyzed tissues
T. cruzi Arequipa strain; 20 mg·kg–1 per day i.p. for 5 days from 9 dpi
  parasitaemia profile during the acute phase: slight antiparasitic activity over the first month
[5]; [18]
  selectivity index (SI), Tulahuen strain, am. forms: 33
[5]; Trypanosoma cruzi, TULAHUEN, amastigotes in Vero cells, 72 h, read-out: activity IC50, Tulahuen strain, am. forms
  IC50: 2.7 ± 0.3 µM
Trypanosoma cruzi Fe-SOD
  IC50: 9.4 µM
[6]; [18]
  selectivity index (SI), SN3 strain, am. forms: 53
[6]; Trypanosoma cruzi, amastigotes in Vero cells, 72 h, read-out: activity IC50, SN3 strain, am. forms
  IC50: 1.7 ± 0.4 µM
[7]
  IC50: 19.7 µM
[8]; [14]
  selectivity index (SI), SN3 strain, trypom. forms: 53
[8]; Trypanosoma cruzi, bloodstream trypomastigotes, 24 h + 4 h resazurin, read-out: activity IC50, SN3 strain, trypom. forms
  IC50: 1.7 ± 0.2 µM
[9]; [15]
  Selectivity index (SI), epimastigotes, Tulahuen strain: 19
[9]; Trypanosoma cruzi, TULAHUEN, 48 h + 24 h resazurin, read-out: Activity IC50, epimastigote form, Tulahuen strain
  IC50: 4.6 ± 0.3 µM
[10]; [19]
  ALP (liver marker): + (+/-, 10-20% increase/decrease over the range)
  ALT/GPT (liver marker): ++ (++/--, 20-30% increase/decrease over the range)
  AST/GOT (liver marker): ++ (++/--, 20-30% increase/decrease over the range)
  CK-MB (heart marker): ++++ (++++/----, ˃ 40% increase/decrease over the range)
  LDH (heart marker): - (+/-, 10-20% increase/decrease over the range)
  Total bilirubin (liver marker): ++ (++/--, 20-30% increase/decrease over the range)
  Urea (kidney marker): -- (++/--, 20-30% increase/decrease over the range)
  Uric acid (kidney marker): ---- (++++/----, ˃ 40% increase/decrease over the range)
[10]; [20]
  ALP (liver marker): + (+/-, 10-20% increase/decrease over the range)
  ALT/GPT (liver marker): ++ (++/--, 20-30% increase/decrease over the range)
  AST/GOT (liver marker): + (+/-, 10-20% increase/decrease over the range)
  CK-MB (heart marker): = (=, variation ≤ 10%)
  LDH (heart marker): = (=, variation ≤ 10%)
  Total bilirubin (liver marker): = (=, variation ≤ 10%)
  Urea (kidney marker): = (=, variation ≤ 10%)
  Uric acid (kidney marker): - (+/-, 10-20% increase/decrease over the range)
[10]; [21]
  ALP (liver marker): + (+/-, 10-20% increase/decrease over the range)
  ALT/GPT (liver marker): + (+/-, 10-20% increase/decrease over the range)
  AST/GOT (liver marker): = (=, variation ≤ 10%)
  CK-MB (heart marker): ++ (++/--, 20-30% increase/decrease over the range)
  LDH (heart marker): = (=, variation ≤ 10%)
  Total bilirubin (liver marker): = (=, variation ≤ 10%)
  Urea (kidney marker): = (=, variation ≤ 10%)
  Uric acid (kidney marker): = (=, variation ≤ 10%)
[10]; [22]
  ALP (liver marker): = (=, variation ≤ 10%)
  ALT/GPT (liver marker): = (=, variation ≤ 10%)
  AST/GOT (liver marker): + (+/-, 10-20% increase/decrease over the range)
  CK-MB (heart marker): + (+/-, 10-20% increase/decrease over the range)
  LDH (heart marker): = (=, variation ≤ 10%)
  Total bilirubin (liver marker): = (=, variation ≤ 10%)
  Urea (kidney marker): = (=, variation ≤ 10%)
  Uric acid (kidney marker): = (=, variation ≤ 10%)
Vero cells
  CC50: 89.3 ± 7.5 µM
[11]; [15]
  Selectivity index (SI), epimastigotes, Arequipa strain: 19
[11]; Trypanosoma cruzi, 48 h + 24 h resazurin, read-out: Activity IC50, epimastigote form, Arequipa strain
  IC50: 4.8 ± 0.4 µM
[12]; [18]
  selectivity index (SI), Arequipa strain, am. forms: 28
[12]; Trypanosoma cruzi, amastigotes in Vero cells, 72 h, read-out: activity IC50, Arequipa strain, am. forms
  IC50: 3.2 ± 0.4 µM
[13]
  IC50: > 100 µM
